The values that follow come from patent publication US5962469A, “Cyclic nitrones” (Hoechst Marion Roussel Inc., priority 1997, dated 1999).

Series [1] in a line: Duration of in vivo activity of compound A. On the set-up: species or system rats. The conditions noted are these: relative to the sedative effect.
Series [2] is described as follows: Inhibition of lipid peroxidation (soybean phosphatidylcholine liposomes). To be noted: Fe2+-initiated, 37° C., 15 min time point, TBARS, read-out: LIPID OX (IC50). Type of series: biochemical. Here is the method: 1. Inhibition of lipid peroxidation
For determination of the ability to inhibit lipid peroxidation, liposomes were prepared from soybean phosphatidylcholine by ethanol injection. An aliquot of phosphatidylcholine was dried in a small glass vial under N2. The lipid was resolubilized in ethanol at a volume of 10 ml per ml of liposomes. Typically, 8 ml volumes of liposomes were prepared per tube and then all preparations were combined to provide a homogenous mixture for the assay. The ethanol containing the lipid was taken up in a Hamilton syringe and injected into the appropriate volume of 50 mM NaCl/10 mM Tris, pH 7.0 at 37° C. with mixing to achieve a final lipid concentration of 0.563 mM.
The liposomes were added to 25 ml beakers in a Dubnoff metabolic shaker at 37° C. To the liposomes were added the test compound (in ethanol or buffer), histidine-FeCl3 250:[…] final), FeCl2 ([…] final, prepared in N2 purged water) and sufficient buffer to achieve a final lipid concentration of 0.5 mM. Oxidations were initiated by the addition of Fe^2^+ and carried out under an air atmosphere with shaking. One ml aliquots were removed at 0,2,4,6,8,10,12 and 15 min and added to 2 ml of 0.67% thiobarbituric acid : 10% trichloroacetic acid (2:1) in 0.25 N HCl containing 0.05 ml of 2% BHT to terminate oxidation. Thomas, C. E., McLean, L. R., Parker, R. A., and Ohlweiler, D. F. (1992) Lipids 27, 543-550.
The samples were heated at 100° C. for 20 min in 13 x 100 mm borosilicate glass tubes covered with marbles to prevent evaporation. After cooling, the tubes were centrifuged at 3,000 rpm for 10 min and the absorbance of the resultant supernatant read at 532 nm-580 nm. Quantitation of thiobarbituric acid reactive substances (TBARS) was determined by comparison to a standard curve of malondialdehyde equivalents generated by acid catalyzed hydrolysis of 1,1,3,3-tetraethoxypropane. The IC50 was determined using the 15 min time point with the computer program GraphPad INPLOT 4. This program uses a nonlinear regression with sigmoidal curve on a semilogarithmic scale.

Series [3] in a line: OH radical trapping (inhibition of the bleaching of p-NDA, primary assay). Format: biochemical. To be noted: for IC50: IC50, Fenton chemistry (Fe2+/H2O2), pH 7.0. As to the method: 2. Assessment as .OH Traps
A. Inhibition of the bleaching of p-NDA
Cyclic nitrones were evaluated for .OH trapping activity by a variety of tests. The primary assay was dependent upon the ability of the compounds to inhibit the .OH-dependent bleaching of p-NDA. Bors, W., Michel, C., and Saran, M. (1979) J. Biochem. 95, 621-627. The p-NDA was prepared at 1 mM in 50 mM NaCl, pH 7.0. The hydroxyl radical was generated using Fenton chemistry (Fe^2+ /H2 O2). FeCl2 is dissolved in N2 purged, double distilled […] to a final concentration of 2.5 mM. H2 O2 was prepared from a 30% stock solution (8.8 M) at 1.25 mM in the buffer. Test compounds were solubilized in buffer or ethanol at a concentration of 1 M or 5 M, depending upon solubility.
Assay mixtures in glass cuvettes contained solutions of 0.02 ml of H2 O2, 0.02 ml of test compound, 0.10 ml of p-NDA and 50 mM NaCl, pH 7.0 to a final volume of 0.98 ml. The oxidation was initiated by the addition of 0.02 ml of Fe^2+ and the bleaching of p-NDA was monitored as the loss in absorbance at 440 nm for 100 sec. To generate concentration curves, serial dilutions of the test compounds were made such that a constant volume of 0.02 ml was added to the reaction mixture. Ethanol itself is an .OH trap, thus controls contained an equal volume of ethanol for any test compound requiring this vehicle. The IC50 values for the nitrones were determined by GraphPad InPlot 4 and represent the amount of spin trap required to inhibit the bleaching of p-NDA by 50%.

Series [4] is described as follows: Sedation in rats. Format: in vivo.
For series [5] the following is noted: compared with PBN; cited from earlier work.
For series [6] the following is noted: compared with PBN; cited from earlier work. This is another data set of the same source.
The subject of series [7] is Cerebellar Granule Cells. Put plainly: Protection of cerebellar granule cells against Fe2+-induced oxidation (TBARS). Format: cell-based. The conditions noted are these: Rattus norvegicus, 0.75 h, read-out: TBARS IC50. Here is the method: (§1) 3. Protection of cerebellar granule cells against oxidative damage
(§2) The cyclic nitrones were tested for their ability to protect primary cultures of cerebellar granule cells against oxidative injury induced by treatment with Fe^2+. Cerebellar granule cell cultures were prepared from 8 day old rats as previously described. […] Briefly, 8-10 cerebella were removed and placed in a Krebs-Ringer bicarbonate medium supplemented with BSA and MgSO4. Cerebella were finely chopped and digested with a trypsin/Krebs-Ringer solution. Cells were then dispersed by trituration in Krebs-Ringer containing DNase, MgSO4 and trypsin inhibitor followed by plating at a density of 1×10^6 cells/well in poly-l-lysine coated plate in MEM/10% fetal bovine serum/KCl/glutamine/gentamicin. Media was replaced at 24 hours and cytosine arabinoside added. Experiments were conducted with cells 8-10 days in vitro.
(§3) The nitrones were added in either Locke's solution or in 20% β-cyclodextrins and allowed to incorporate into the cells for 30 min. At this time 20 μl of a 5 mM stock solution of ferrous chloride was added for a final concentration of 100 μM. After 45 min the media was removed and added to 1.5 ml of TBA/TCA (2:1) with 25 μl of 2% BHT and TBARS determined as described above. The absorbance of the control cells (no iron) was subtracted from the iron treated cells and this value taken as the denominator to determine the concentration of nitrone required to inhibit oxidation by 50%.

A short description of series [8]: Solubility. Format: physicochemical. To be noted: for water solubility: noted during work-up.
The test system of series [9] is Cerebellar Granule Cells. As to the kind of experiment: Protection of cerebellar granule cells against Fe2+-induced damage (viability, MTT). The conditions noted are these: Rattus norvegicus, read-out: Viability IC50. Type of series: cell-based. Here is the method: as §1, §2, §3
Fresh MEM media was added to the cells along with 100 μl of MTT. After 4 hrs, 1 ml of cold isopropanol/0.04 N HCl was added, the cells scraped, mixed well and transferred to 13×100 mm glass test tubes. The absorbance resulting from mitochondrial reduction of the MTT (570 nm minus 630 nm) was measured as an assessment of viability. The % cell death was determined by comparison to the absorbance of cells to which no iron was added.

The nature of series [10]: Metabolites of A isolated from an in vivo experiment. To be noted: relative to Metabolite 2. The text has this: Indeed, from the onset, a primary goal has been to find a potent antioxidant which lacks this side effect observed with compound A. In this regard, the following observations were of special interest. […] In order to investigate this possibility, the major metabolite C and a minor, possibly secondary, metabolite (Metabolite 2) were isolated from an in vivo experiment, purified by HPLC, and assigned the structures shown below (FIG. 3). [drawing 16]

The test system of series [11] is neuronal cell loss and neurologic deficits. The conditions noted are these: stroke, gerbil model; cited from earlier work.
Series [12] concerns endotoxin associated mortality. To be noted: rats; cited from earlier work.
For series [13] the following is noted: ESR spectroscopy, gerbils; cited from earlier work.
For series [14], the system named is ischemia-induced damage. The conditions noted are these: vitamin E supplementation; cited from earlier work.
In series [15] the test system is loss of cell viability. To be noted: prior administration for vitamin E; cited from earlier work.
Setting [16] is: Fe2+-induced damage, 100 μM ferrous chloride, 45 min.
Setting [17] is: Fe2+-induced damage, MTT reduction.

The structures appear in SMILES notation.

A word on the IC50: it is the point on the concentration scale where inhibition reaches its midpoint.

As for `CC1(C)Cc2ccccc2C=[N+]1[O-]` [A, 3,4-dihydro-3,3-dimethylisoquinoline N-oxide], the “duration of in vivo activity” value in series [1] is reported as “persists for a considerably longer period of time”. Also, the 50% inhibitory concentration (IC50) in [2] came out at 1670 µM; in [3] it was 2830 µM. Besides, the sedation entry in series [4] (high doses in rats) is “causes sedation when administered in high doses in rats”. The “time course of sedative effect” value in series [4] (rats) was “peaks and declines rapidly”. In addition, the “inhibition of lipid oxidation relative to PBN” value in [5] is recorded as “more potent inhibitors of lipid oxidation”. For the same molecule, the “hydroxyl radical trapping relative to PBN” value in series [6] is recorded as “better hydroxyl radical traps”.

On to `[O-][N+]1=Cc2ccccc2CC12CCCCC2` [B, spiro [cyclohexane-1,3']3,4-dihydroisoquinoline N-oxide, reference compound], for which the “inhibition of lipid oxidation relative to PBN” value in [5] was “more potent inhibitors of lipid oxidation”. The “hydroxyl radical trapping relative to PBN” value in [6] was “better hydroxyl radical traps”.

As for `CC1(C)C(O)c2ccccc2C=[N+]1[O-]` (centres unmarked) [C, 3,3-Dimethyl-3,4-dihydroisoquinolin-4-ol, N-oxide], the IC50 in [7] (setting [16]) is 1900 µM; in [9] (setting [17]) it was 1550 µM. Moreover, in series [8], the water solubility result is on record as “relatively high water solubility”. In addition, the “abundance of metabolite in vivo” value in [10] was “much more abundant in vivo than Metabolite 2”.

As for `CC1(C)Cc2c(ccc3ccccc23)C=[N+]1[O-]` [Compound 9, 2,2-Dimethyl-1,2-dihydrobenzo[f]isoquinoline N-oxide], the 50% inhibitory concentration (IC50) in series [2] was 100 µM. Further, the solubility entry in series [8] (reason for OH radical trapping not measured) is “low solubility”.

`CC1(C)Cc2ccc3ccccc3c2C=[N+]1[O-]` [Compound 10, 3,3-Dimethyl-3,4-dihydrobenzo[h]isoquinoline N-oxide]: the half-inhibitory concentration (IC50) in [2] worked out at 69 µM.

Regarding `CC1(C)Cc2ccsc2C=[N+]1[O-]` [Compound 13, 5,5-Dimethyl-4,5-dihydrothieno[2,3-c]pyridine N-oxide], the IC50 in series [2] turned out to be 1720 µM; in [3], 4340 µM.

Turning to `Cc1cc2c(c(C)c1O)CC(C)(C)[N+]([O-])=C2` [Compound 15, 3,3,5,7-Tetramethyl-3,4-dihydroisoquinolin-6-ol N-oxide], the IC50 came to 220 µM in series [7] (setting [16]) and 190 µM in [9] (setting [17]).

On to `Cc1cc2c(c(C)c1O)CC(C)(C)N=C2` [Compound 38, 3,3,5,7-Tetramethyl-3,4-dihydroisoquinolin-6-ol], for which, in series [8], the water solubility entry is given as “high water solubility”.

As to `CC1(C)Cc2sccc2C=[N+]1[O-]` [Compound 48, 6,6-Dimethyl-6,7-dihydrothieno[3,2-c]pyridine N-oxide], the IC50 in series [2] amounted to 1590 µM; in series [3], 14400 µM.

`CC1(C)Cc2ccoc2C=[N+]1[O-]` [Compound 53, 5,5-Dimethyl-4,5-dihydrofuro[2,3-c]pyridine N-oxide]: the half-maximal inhibitory concentration (IC50) in series [2] was 1070 µM. Moreover, the “OH RADICAL TRAPPING (effect)” value in series [3] (at 20 mM) is on record as “no effect”.

On to `CC(=O)OC1c2ccccc2C=[N+]([O-])C1(C)C` (centres unmarked) [Compound 76, 4-Acetoxy-3,3-dimethyl-3,4-dihydroisoquinoline, N-oxide], for which the 50% inhibitory concentration (IC50) was 839 µM in [7] (setting [16]) and 864 µM in series [9] (setting [17]).

Regarding `CC1(C)C(=O)c2ccccc2C=[N+]1[O-]` [Compound 77, 3,3-Dimethyl-3H-isoquinolin-4-one, N-oxide], the IC50 in series [7] (setting [16]) was 830 µM; in series [9] (setting [17]) it was 385 µM.

With `[O-][N+]1=Cc2ccccc2C(O)C12CCCCC2` (centres unmarked) [D, 3,4-dihydroisoquinolin-4-ol-3-spirocyclohexane, N-oxide], the concentration for half-maximal inhibition (IC50) in series [7] (setting [16]) was 520 µM; in [9] (setting [17]) it was 588 µM.

Take `O=C1c2ccccc2C=[N+]([O-])C12CCCCC2` [E, 3H-isoquinolin-4-one-3-spirocyclohexane, N-oxide]: the IC50 in series [7] (setting [16]) came out at 37 µM; in series [9] (setting [17]), 39 µM.

On to `[O-][N+]1=Cc2ccccc2C(O)C12CCCC2` (centres unmarked) [F, 3,4-dihydroisoquinolin-4-ol-3-spirocyclopentane, N-oxide], for which the results for the IC50 in series [7] (setting [16]) and in series [9] (setting [17]) were 771 µM and 817 µM, respectively.

Turning to `O=C1c2ccccc2C=[N+]([O-])C12CCCC2` [G, 3H-isoquinolin-4-one-3-spirocyclopentane, N-oxide], the IC50 is 102 µM in [7] (setting [16]) and 105 µM in [9] (setting [17]).

Consider `CC(C)(C)[N+]([O-])=Cc1ccccc1` [PBN, alpha-phenyl-tert-butyl nitrone], for which the half-maximal inhibitory concentration (IC50) in series [7] and in series [9] was 2600 µM throughout. Also, the “effect on neuronal cell loss and neurologic deficits” value in [11] is “can significantly ameliorate neuronal cell loss and neurologic deficits”. The “reduction of endotoxin associated mortality” value in series [12] is “reduce endotoxin associated mortality in rats”. In addition, the “trapping of lipid-derived radicals in cortical tissue” value in [13] is recorded as “trap lipid-derived radicals in cortical tissue”.

On to `Cc1c(C)c2c(c(C)c1O)CCC(C)(CCCC(C)CCCC(C)CCCC(C)C)O2` (stereo not drawn) [vitamin E, α-tocopherol], for which, in series [14], the “protective effect against ischemia-induced damage” value is on record as “some protective effect”. The “protection against loss of cell viability” value in [15] was “partial protection”.
